# Assays:
# [1] = molecular target: human adenosine receptor sub-type A3 (Homo sapiens (Human), UniProt P0DMS8); experiment: Affinity for human adenosine A3 receptor by SPR; assay type: binding; settings: for Relative selectivity for A2a v. A3: from SPR IC50 values, rounded to 2 significant figures
# Protocol: (§1) Affinity for the human adenosine receptor sub-types (A2a, A2b, A1 and A3) was determined by surface plasmon resonance (SPR) using published methodologies (see below for further details).
# (§2) Affinity for the human adenosine receptor sub-types (A2a, A2b, A1 and A3) was determined by SPR as described in Aristotelous, T., et al, Methods in Enzymology (2015), Volume 556, Chapter 23, pages 499-525 and Congreve, M., et al, J Med Chem (2012), Vol. 55, pages 1898-1903. The method used was analogous to the method used in Congreve, M., et al (see supplementary page S10) for the A2a receptor, but the wild type receptor was used rather than the proprietary StaR form.
# [2] = molecular target: human adenosine receptor sub-type A2b (Homo sapiens (Human), UniProt P29275); experiment: Affinity for human adenosine A2b receptor by SPR; assay type: binding; settings: for IC50: SPR, human A2b receptor; for Relative selectivity for A2a v. A2b: from SPR IC50 values, rounded to 2 significant figures
# Protocol: as §1, §2
# Solubility = assay type: physicochemical; settings: water (or specific buffer), thermodynamic from solid, overnight stirring at ambient temperature, LC-UV
# Excerpt: The test compound in solid form was suspended in water (or specific buffer). After overnight stirring at ambient temperature protected from light, suspensions were filtered. An aliquot of the resulting supernatant was quantified using LC-UV method against a reference solution in DMSO obtained by preparation from powder.
# [3] = molecular target: human A2a receptors (HEK 293 transfected) (Homo sapiens (Human), UniProt P29274); experiment: Inhibition of cAMP release in HEK-A2aR cells (HTRF, LANCE Ultra cAMP); assay type: cell-based; settings: 3 nM NECA, 10 min
# Protocol: Functional activity was measured by inhibition of cAMP release in HEK cells (see below for further details).
# To screen A2a receptor inhibitors by HTRF technology, about 500 HEK-A2aR cells (HEK 293 transfected with human A2a receptors) were treated with inhibitors in presence of stimulation buffer (1×HBSS, 5 mM HEPES, 0.1% BSA stabilizer, pH 7.4) supplemented with 30 μM phosphodiesterase inhibitor Rolipram (to prevent cAMP degradation). This stimulation was immediately followed by treatment with 3 nM standard A2aR agonist (NECA) for 10 min under gentle shaking at room temperature. After that, inhibition of cAMP release was determined directly using LANCE Ultra cAMP assay (Perkin Elmer TRF0263).
# All analysis was performed using GraphPad Prism 7.0 (GraphPad Software, San Diego, USA). Results are given, as EC50 (M).
# [4] = molecular target: human adenosine receptor sub-type A2a (wild type) (Homo sapiens (Human), UniProt P29274); experiment: Affinity for human adenosine A2a receptor by surface plasmon resonance (SPR); assay type: binding
# Protocol: as §1, §2
# [5] = molecular target: human adenosine receptor sub-type A1 (Homo sapiens (Human), UniProt P30542); experiment: Affinity for human adenosine A1 receptor by SPR; assay type: binding; settings: for IC50: SPR, human A1 receptor; for Relative selectivity for A2a v. A1: from SPR IC50 values, rounded to 2 significant figures
# Protocol: as §1, §2
# [6] = system: human primary CD3+ T-cells; experiment: Recovery of 2-chloroadenosine (CADO) mediated inhibition of IL-2 production; assay type: cell-based; settings: T-cell, two donors, 10 μM CADO, 48 hours
# Protocol: CD3^+ cells were isolated from Buffy Coat of two human healthy donors (Donor 1: D1 and Donor 2: D2) with the RosetteSep technology (RosetteSep Human T cell enrichment cocktail from Stem Cell) according to provider's instructions. T-cells were then stimulated with anti-CD3 mAb, anti-CD28 mAb coated beads (Dynabeads® Human T-Activator CD3/CD28 (Thermo Fisher Scientific) in a complete medium containing 10% fetal bovine serum in the presence or not of Example 1. After one hour incubation time, CADO (2-chloroadenosine, Abcam Biochemical) at 10 μM was added to the culture. After 48 hours of stimulation at 37° C., 5% CO2 and a short centrifugation, culture supernatant were harvested and stored at −80° C. for further evaluation by ELISA. In the meantime, a staining with a living dye was performed to access compound-induced toxicity. Il-2 measurement was performed by using the Human IL-2 Uncoated ELISA (Invitrogen) following data sheet instructions. To access the percentage of IL-2 inhibition induced by 10 μM CADO, the calculation used control condition (cells stimulated in basal condition). Then to access compound-induced recovery of IL-2 production, each dose was normalized following this formula: ([sample]−[mean of CADO])/([mean of basal condition]−[mean of CADO])*100. Compounds normalization was performed per plate. […]
# MCA-205 tumor = experiment: Inhibition of the growth of MCA-205 tumor in syngeneic mice; assay type: in vivo, mouse; settings: 30 mg/kg BID oral gavage, 11 consecutive days from day 10; day 19 to study termination; p<0.005 and p<0.001
# Protocol: C57/BI6JRjJL female mice (9-10 weeks old from Janvier Laboratories) were engrafted in subcutaneous location with 0.25.10^6 MCA-205 cells (suspended in 100% PBS buffer, fibrosarcoma cell line kindly provided by Dr. J. Stagg, Universite de Montréal, Canada). Mice were then kept in a post-operative cabinet at 28° C. until complete recovery.
# Randomization of mice was performed on day 9 post-cell inoculation, after measurement of tumour volumes using a digital caliper. Assuming an ovoid form of the tumour, the following formula was applied: Volume=0.52×(width)^2×length. Width and length were expressed in mm, volume in mm^3. Twenty-six female mice were allocated in two groups: vehicle and Example 1 (n=13 mice/group). Oral gavage with vehicle (control group, PEG200/Soluplus 10% in Citrate Buffer pH3 at 50 mM (50%/50% w/v)) or Example 1 solubilized in the vehicle at 30 mg/kg in BID (twice daily administrations by oral gavage with a volume of administration of 5 ml/kg) was initiated 10 days after cell inoculation and continued for 11 consecutive days.
# Chain of human adenosine receptor sub-type A2a (wild type) (P29274 whole entry): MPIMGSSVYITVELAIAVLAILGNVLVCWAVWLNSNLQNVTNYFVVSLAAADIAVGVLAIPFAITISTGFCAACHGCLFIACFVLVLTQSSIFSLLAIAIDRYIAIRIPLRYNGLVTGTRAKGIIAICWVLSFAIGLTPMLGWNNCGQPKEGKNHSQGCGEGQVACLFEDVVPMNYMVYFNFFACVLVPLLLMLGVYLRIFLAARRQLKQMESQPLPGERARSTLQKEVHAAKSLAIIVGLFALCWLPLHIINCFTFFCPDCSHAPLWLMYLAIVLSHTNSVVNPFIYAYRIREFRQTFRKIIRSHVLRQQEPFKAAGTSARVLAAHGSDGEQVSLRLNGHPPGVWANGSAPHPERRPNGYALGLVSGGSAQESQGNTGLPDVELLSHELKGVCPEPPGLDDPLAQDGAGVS
# Chain of human A2a receptors (HEK 293 transfected) (P29274 whole entry): as above
# Chain of human adenosine receptor sub-type A1 (P30542 whole entry): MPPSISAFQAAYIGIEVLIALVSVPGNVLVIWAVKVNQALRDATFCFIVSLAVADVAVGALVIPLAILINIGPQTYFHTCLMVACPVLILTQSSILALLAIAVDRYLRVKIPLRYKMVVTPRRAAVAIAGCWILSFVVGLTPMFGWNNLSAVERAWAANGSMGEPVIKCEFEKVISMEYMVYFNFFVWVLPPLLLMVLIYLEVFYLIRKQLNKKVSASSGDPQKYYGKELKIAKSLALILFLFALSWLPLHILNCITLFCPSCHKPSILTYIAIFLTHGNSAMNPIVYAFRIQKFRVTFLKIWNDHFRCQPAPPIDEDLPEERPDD
# Chain of human adenosine receptor sub-type A3 (P0DMS8 whole entry): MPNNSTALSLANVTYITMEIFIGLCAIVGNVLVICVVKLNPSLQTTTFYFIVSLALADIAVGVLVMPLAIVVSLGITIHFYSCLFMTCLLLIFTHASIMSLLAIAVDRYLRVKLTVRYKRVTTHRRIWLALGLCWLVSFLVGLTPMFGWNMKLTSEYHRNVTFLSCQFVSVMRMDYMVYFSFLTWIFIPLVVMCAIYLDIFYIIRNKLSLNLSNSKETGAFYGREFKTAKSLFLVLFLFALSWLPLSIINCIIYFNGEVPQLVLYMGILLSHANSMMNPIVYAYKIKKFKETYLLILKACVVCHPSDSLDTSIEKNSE
# Chain of human adenosine receptor sub-type A2b (P29275 whole entry): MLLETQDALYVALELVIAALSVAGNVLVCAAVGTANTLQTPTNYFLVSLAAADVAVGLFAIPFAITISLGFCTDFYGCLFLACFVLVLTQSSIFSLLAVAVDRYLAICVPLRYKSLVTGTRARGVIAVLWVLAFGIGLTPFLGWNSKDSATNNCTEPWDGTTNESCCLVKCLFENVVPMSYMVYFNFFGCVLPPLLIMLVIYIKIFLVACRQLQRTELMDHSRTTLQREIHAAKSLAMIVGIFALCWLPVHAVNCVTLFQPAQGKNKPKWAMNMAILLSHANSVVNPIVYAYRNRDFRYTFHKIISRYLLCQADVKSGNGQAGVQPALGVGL
Compound,"IC50 ([1]; SPR, human A3 receptor)",Relative selectivity for A2a v. A3 [1],IC50 [2],Relative selectivity for A2a v. A2b [2],solubility (Solubility),EC50 [3],IC50 [4],IC50 [5],Relative selectivity for A2a v. A1 [5],EC50 [6],mean tumor volume (MCA-205 tumor),"A3 SPR IC50 ([1]; SPR, human A3 receptor)"
"COc1ccccc1Cn1cc2c(N)nc(-c3ccc(C)o3)nc2n1 [Comparative Example 1, reference compound]",1.97 µM,900,4.91 µM,2200,0.001 mg/mL,0.018 µM,0.0022 µM,0.114 µM,51,–,–,–
"Cc1cccc(Cn2cc3c(N)nc(-c4ccsn4)nc3n2)c1 [Example 1, 2-[(3-methylphenyl)methyl]-6-(1,2-thiazol-3-yl)-2H-pyrazolo[3,4-d]pyrimidin-4-amine]",35.8 µM,10000,1.5 µM,430,–,0.004 µM,0.0035 µM,3.1 µM,890,0.56 µM,significant inhibition of the mean tumor volume,–
"COc1cccc(Cn2cc3c(N)nc(-c4nccs4)nc3n2)c1 [Example 8, 2-[(3-methoxyphenyl)methyl]-6-(1,3-thiazol-2-yl)-2H-pyrazolo[3,4-d]pyrimidin-4-amine]",–,–,–,–,> 0.01 mg/mL,0.023 µM,0.011 µM,–,–,–,–,–
"COc1cccc(Cn2cc3c(N)nc(-c4cnco4)nc3n2)c1 [Example 11, 2-[(3-methoxyphenyl)methyl]-6-(1,3-oxazol-5-yl)-2H-pyrazolo[3,4-d]pyrimidin-4-amine]",21 µM,4300,0.58 µM,120,> 0.01 mg/mL,0.07 µM,0.0049 µM,0.35 µM,71,–,–,–
"Cc1ccc(Cn2cc3c(N)nc(-c4ccsn4)nc3n2)cc1F [Example 19, 2-[(3-fluoro-4-methylphenyl)methyl]-6-(1,2-thiazol-3-yl)-2H-pyrazolo[3,4-d]pyrimidin-4-amine]",–,>10000,1.45 µM,260,> 0.005 mg/mL,0.084 µM,0.0056 µM,1.18 µM,210,–,–,Non-
"Cc1ccc(Cn2cc3c(N)nc(-c4ccsn4)nc3n2)cc1C(F)(F)F [Example 24, 2-{[4-methyl-3-(trifluoromethyl)phenyl]methyl}-6-(1,2-thiazol-3-yl)-2H-pyrazolo[3,4-d]pyrimidin-4-amine]",49.9 µM,6300,25.6 µM,3200,–,0.011 µM,0.0079 µM,1.42 µM,180,–,–,–
"Cc1cccc(Cn2cc3c(N)nc(-c4cnccn4)nc3n2)c1 [Example 27, 2-[(3-methylphenyl)methyl]-6-(pyrazin-2-yl)-2H-pyrazolo[3,4-d]pyrimidin-4-amine]",–,–,–,–,> 0.05 mg/mL,0.007 µM,0.0032 µM,–,–,–,–,–
"Nc1nc(-c2ccsn2)nc2nn(Cc3cccc(Cl)c3)cc12 [Example 35, 2-[(3-chlorophenyl)methyl]-6-(1,2-thiazol-3-yl)-2H-pyrazolo[3,4-d]pyrimidin-4-amine]",4.7 µM,1100,0.53 µM,130,> 0.01 mg/mL,0.06 µM,0.0042 µM,0.29 µM,69,–,–,–
"COc1ccccc1Cn1cc2c(N)nc(-c3cnccn3)nc2n1 [Example 37, 2-[(2-methoxyphenyl)methyl]-6-(pyrazin-2-yl)-2H-pyrazolo[3,4-d]pyrimidin-4-amine]",–,–,–,–,> 0.01 mg/mL,0.082 µM,0.0027 µM,–,–,–,–,–
"COc1ccccc1Cn1cc2c(N)nc(-c3ccsn3)nc2n1 [Example 38, 2-[(2-methoxyphenyl)methyl]-6-(1,2-thiazol-3-yl)-2H-pyrazolo[3,4-d]pyrimidin-4-amine]",44.3 µM,10000,11.7 µM,2700,–,0.013 µM,0.0043 µM,3.4 µM,790,–,–,–
"COc1ccccc1Cn1cc2c(N)nc(-c3cnco3)nc2n1 [Example 40, 2-[(2-methoxyphenyl)methyl]-6-(1,3-oxazol-5-yl)-2H-pyrazolo[3,4-d]pyrimidin-4-amine]",46.2 µM,23000,1.46 µM,730,–,0.013 µM,0.002 µM,0.99 µM,500,–,–,–
"COc1ccc(Cn2cc3c(N)nc(-c4cnccn4)nc3n2)cc1OC [Example 41, 2-[(3,4-dimethoxyphenyl)methyl]-6-(pyrazin-2-yl)-2H-pyrazolo[3,4-d]pyrimidin-4-amine]",–,–,–,–,> 0.05 mg/mL,–,0.589 µM,–,–,–,–,–
"Nc1nc(-c2ccsn2)nc2nn(Cc3ccccc3O)cc12 [Example 44, 2-{[4-amino-6-(1,2-thiazol-3-yl)-2H-pyrazolo[3,4-d]pyrimidin-2-yl]methyl}phenol]",–,–,–,–,> 0.05 mg/mL,0.127 µM,0.015 µM,–,–,–,–,–

# — patent US11786528B2, “Pyrazolopyrimidine compounds as adenosine receptor antagonists” (EXSCIENTIA LTD., priority 2018, dated 2023)
